Experimental data: patent US10538567B2, “Compounds as peptidic trigonal GLP1/glucagon/GIP receptor agonists” (priority 2016, dated 2020)
Numbered stars: 1 amine (or outer) side, 2 acyl side, 3 side chain; on linkers, the order of the positions; unused ones are H or OH. Square brackets hold non-standard residues; d marks the D form. Side chains are listed from the residue outwards. Peptide text beside a SMILES is read from it. * marks the point of attachment. γGlu = O=C(O)[C@H](CCC(=O)[*:2])N[*:1]; Palmitoyl = CCCCCCCCCCCCCCCC(=O)*; Aib = CC(C)(N)C(=O)O

Experiments:
[1] = Solubility assessment in solubility buffer system A; format: physicochemical; settings: acetate buffer pH 4.5 with m-cresol; acetate buffer pH 4.5, 2.7 mg/ml m-cresol, target 10 mg/ml
Procedure: Prior to the solubility measurement of a peptide batch, its purity was determined through UPLC/MS.
Therefore solutions from solid samples were prepared in a buffer system with a concentration of 10 mg/mL compound based on the previously determined % purity:
Solubility buffer system A) Acetate Buffer pH 4.5, 100 mM sodium acetate trihydrate, 2.7 mg/ml m-Cresol
UPLC-UV was performed after 1 hour of gentle agitation from the supernatant, which was obtained after 15 min of centrifugation at 2500 RCF (relative centrifugal acceleration).
The solubility was determined by the comparison of the UV peak area of 2 μL-injection of a buffered sample diluted 1:10 with a standard curve of a reference peptide with known concentration. The different UV extinction coefficients of sample and reference peptide were calculated based on the different amino acid sequences and considered in the concentration calculation.
Peptide samples were prepared in solubility buffer system A and solubility was assessed as described in Methods.

[2] = system: female diet-induced obese (DIO) C57BL/6 mice; assay: Acute and chronic effects after s.c. treatment in female diet-induced obese (DIO) C57BL/6 mice; format: in vivo
Procedure: Female C57BL/6NHsd mice were ordered group housed from Envigo RMS Inc., shipped group housed and remained group housed with shipped cage mates in shoebox caging with wood chip bedding until day 38 of the predose phase. At the study start mice were between 25-26 weeks old.
Mice were housed under vivarium conditions that included a 12 h light/dark cycle (light phase 04:00 AM-4:00 PM), room temperatures between 23-26° C. and a relative humidity between 30-70%. All animals had free access to water and a high fat diet (TD97366) for 16 weeks prior to pharmacological intervention (dosing phase). Feed was replaced with fresh feed weekly until and for the last time on day 38 of the predose phase. During the subsequent dosing phase, approximately 50% of the remaining feed were removed, replaced with fresh feed, and pellets were mixed evenly once per week.
On predose day 38, obese DIO mice were assigned to treatment groups (n=8) to match mean body masses between all DIO groups. An age-matched group with ad libitum access to a rodent maintenance diet (Teklad Global Diets Rodent 2014, pelleted) was included in the study as a lean control group. In the predosing phase from day 32 through 38, all study animals were treated with vehicle (Phosphate Buffered Saline, PBS, Gibco, without CaCl2 and MgCl2) once daily (s.c. approximately 0.2 mL/mouse).
On day 37 of the predose phase, the test article was diluted with PBS to a concentration of 100 μg/mL and aliquots of this stock solution were stored at approximately ≤−60° C. Stock aliquots were thawed for weekly use and thereafter stored in a refrigerator at approximately 4° C. The injected test article solution was prepared fresh once on each dosing day by diluting stock solution with PBS to achieve the desired concentration.
Mice were treated twice daily with a s.c. injection of PBS-vehicle or the test article for 28 days. The morning dosing was initiated and completed between 06:00 and 07:30 AM and the afternoon dosing between 2:00 and 3:30 PM. On day 28 of the dosing phase only the morning dose was administered. The applied volume was 5 ml/kg and the dose was adjusted to the most recent body mass recording of each individual.
Animals had unlimited access to water and feed during the experiment. On day 1 of the dosing phase approximately 5 μL of blood were collected via tail clips at hour 0 prior to the first s.c. dose of PBS-vehicle or test article and 1, 2, 3, 4, 6, and 24 hours post-dose in non-anesthetized animals. The 24 hour blood collection was performed prior to dosing on day 2. Between the 6 and 24 hour blood sample the afternoon dose was administered. Glucose measurements were performed in whole blood and in duplicate or triplicate using Aviva glucometers.
Body mass was measured daily approximately between 06:00-07:30 AM from day 32 through 38 of the predosing phase and throughout the 28 days of the dosing phase. During the dosing phase mice were treated twice daily with either a s.c. injection of PBS-vehicle or test article.
To determine whole body fat mass Quantitative Nuclear Magnetic Resonance (QNMR) measurements were performed on predosing day 37 and on day 26 of the dosing phase. During the dosing phase mice were treated twice daily with either a s.c. injection of PBS-vehicle or test article.
Feed consumption was based on the daily assessment of the feeder weights of each cage between 06:00-07:30 AM. Each cage housed four mice and feed consumption was calculated throughout the 28 days of the dosing phase. During the dosing phase mice were treated twice daily with either a s.c. injection of PBS-vehicle or test article.
On day 28 blood was collected prior to any other inlife activities for determination of plasma insulin concentrations. Then the morning dose was administered and necropsy was performed 4 hours post-dose. For this purpose animals were anesthetized with isoflurane and blood was collected by orbital bleeding. […]

male ApoE KO mice = assay: Anti-atherosclerotic activity in ApoE KO mice, 16 weeks minipump infusion; format: in vivo; settings: 150 μg/kg/day
Text: The apolipoprotein E (ApoE) knockout (KO) mouse model is widely used to investigate atherosclerosis. These mice spontaneously develop atherosclerotic lesions that are morphologically similar to those observed in humans (Meir & Leitersdorf 2004, Arterioscler Thromb Vasc Biol 24: 1006-1014, Rosenfeld et al. 2000, Arterioscler Thromb Vasc Biol 20: 2587-2592).
Male ApoE KO mice (B.129P2-apoetm1Unc/J) were randomly allocated to control or treatment groups (N=15 per group); wild-type mice (C57BL6/J) received vehicle treatment and acted as a second, healthy control.
ApoE KO and wild-type mice received constant 16 weeks infusion using subcutaneous osmotic minipumps (ALZET™) filled with either vehicle (sterile acetate buffer, pH 4.5), Peptides SEQ ID NO. 6 & SEQ ID NO. 11 (150 μg/kg/day) or with Liraglutide (600 μg/kg/day). Body weight and food intake was monitored throughout the study on a weekly basis.
Blood samples for blood lipid analysis were drawn before treatment and at weeks 7 and 16 to analyze total cholesterol, low density lipoprotein (LDL) cholesterol and high density lipoprotein (HDL) cholesterol (not shown).
The aorta was dissected and aortic atherosclerotic plaque formation was measured as absolute and relative plaque area (% oilred stained area of total aortic surface area) using quantitative and automated image analysis.

solubility at 1 h [1]: > 9800 µg/mL
Compound: CCCCCCCCCCCCCCCC(=O)N[C@@H](CCC(=O)N[C@@H](CCC(=O)NCCCC[C@H](NC(=O)[C@H](CC(C)C)NC(=O)[C@H](CCCCN)NC(=O)[C@H](CO)NC(=O)[C@H](CC(C)C)NC(=O)[C@H](CC(=O)O)NC(=O)[C@H](CO)NC(=O)[C@@H](NC(=O)[C@H](Cc1ccccc1)NC(=O)[C@@H](NC(=O)CNC(=O)[C@H](Cc1c[nH]cn1)NC(=O)C(C)(C)NC(=O)[C@@H](N)Cc1c[nH]cn1)[C@@H](C)O)[C@@H](C)O)C(=O)N[C@@H](CCC(=O)O)C(=O)N[C@@H](CCC(=O)O)C(=O)N[C@@H](CCC(N)=O)C(=O)N[C@@H](CCCNC(=N)N)C(=O)N[C@@H](CCC(N)=O)C(=O)NC(C)(C)C(=O)N[C@@H](CCC(=O)O)C(=O)N[C@@H](Cc1ccccc1)C(=O)N[C@H](C(=O)N[C@@H](CCC(=O)O)C(=O)N[C@@H](Cc1c[nH]c2ccccc12)C(=O)N[C@@H](CC(C)C)C(=O)N[C@@H](CCCCN)C(=O)N[C@@H](C)C(=O)N[C@H](C)C(=O)NCC(=O)N1CCC[C@H]1C(=O)N1CCC[C@H]1C(=O)N[C@@H](CO)C(=O)NC(C)(C)C(=O)N[C@@H](CCCCN)C(=O)N1CCC[C@H]1C(=O)N1CCC[C@H]1C(=O)N1CCC[C@H]1C(=O)N[C@@H](CCCCN)C(N)=O)[C@@H](C)CC)C(=O)O)C(=O)O [SEQ ID NO: 11, H-Aib-H-G-T-F-T-S-D-L-S-K-L-K[gGlu-gGlu-Palm]-E-E-Q-R-Q-Aib-E-F-I-E-W-L-K-A-dAla-G-P-P-S-Aib-K-P-P-P-K-NH2] (H-H[Aib]HGTFTSDLSKLK([γGlu-γGlu-Palmitoyl])EEQRQ[Aib]EFIEWLKA[dA]GPPS[Aib]KPPPK-NH2)
time until mice habituated to the feed intake suppression ([2]; DIO mice, 30 μg/kg s.c. twice-daily): approximately 15 days | Feed consumption estimate ([2]; DIO mice, 30 μg/kg s.c. twice-daily, after dosing start): suppressed feed intake | Blood glucose profile following first treatment ([2]; fed DIO mice, day 1, 30 μg/kg s.c., 0-24 hours post-dose): pronounced decrease in blood glucose concentrations that persisted over 24 hours | reduction of atherosclerotic plaques relative to vehicle control (male ApoE KO mice; 4 months (16 weeks) s.c. minipump): 73% | LDL-cholesterol (male ApoE KO mice; 16 weeks): marked reduction
